According to patent US20250163057A1, “DCN-1 MODULATING COMPOUNDS AND METHODS OF USE THEREOF” (Cellarity, Inc., priority 2023, published 2025):
Like-named read-outs stand apart in the source and are kept apart here.

Key:
[1] = tested on: Cullin-3 (CUL3) neddylation; experiment: AlphaLISA assay for Cullin-3 (CUL3) neddylation in TF 1 cells; assay type: cell-based; settings: Homo sapiens, TF-1, 3 h, 3 hours treatment
Protocol: An AiphaLISA assay was performed to evaluate the ability of the compounds to suppress neddylation, which is downstream from DCN-1 and DCN-2. A stronger inhibition of DCN-1 and DCN-2 is expected to result in a suppression of neddylation as shown by a lower AlphaLISA signal. The AlphaLISA assay for detecting Cullin-3 (CUL3) neddylation was performed according to manufacturer instructions (Revvity, Hopkinton, MA). Briefly, TF 1 cells (ATCC) were plated in Iscove's Modified Dulbecco's Medium (IMIDM) without supplements in 384-well plates. These cells were treated with […] for 3 hours before lysing them with AlphaLISA lysis buffer, 5× (Revvity). To detect the level of CUL3 neddylation, biotinylated anti-NEDD8 antibody, was added followed by AlphaLISA Acceptor beads conjugated with anti-CUL3 antibody. After overnight incubation, Streptavidin-coated Alpha Donor beads were added and incubated for 1 hour. The AlphaLISA signal was then read on a VICTOR Nivo Multimode Microplate Reader (Revvity, Hopkinton, MA). The positive control was 1 μM DI-1548, which is reported to reduce CUL3 neddylation, also referred to as C-1 in Example 41 (Zhou et al. Nature Comm. 2021). The neddylation signal was normalized such that the percent inhibition is 0% for vehicle control and 100% for positive control. The dose-response curves were fitted with the Hill equation to obtain IC50 values (Graphpad Prism).

[2] = target: DCN1 (DCUND1) protein PONY domain (Homo sapiens (Human), UniProt Q96GG9); experiment: TR-FRET assay, DCN1 binding with FAM-labeled probe
Procedure, shortened: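 Binding was read as the TR-FRET ratio between a FAM-tagged inhibitor probe and Tb-labeled biotinylated E. coli-expressed DCN1 PONY domain, measured 1, 5 and 24 h after compound addition. The two setups used 5 nM protein/20 nM FAM-probe or 0.31 nM protein/900 nM total probe (100 nM labeled), in TritonX buffer with 200 mM NaCl.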

[3] = 24 hr after treatment with compound, read-out: TR FRET IC50 24 hr
[4] = TR FRET IC50 1 hr (nM), 1 hr after treatment with compound
[5] = read-out: TR FRET IC50 1 hr, 1 hr after treatment with compound

Chain of DCN1 (DCUND1) protein PONY domain (Q96GG9 60-248): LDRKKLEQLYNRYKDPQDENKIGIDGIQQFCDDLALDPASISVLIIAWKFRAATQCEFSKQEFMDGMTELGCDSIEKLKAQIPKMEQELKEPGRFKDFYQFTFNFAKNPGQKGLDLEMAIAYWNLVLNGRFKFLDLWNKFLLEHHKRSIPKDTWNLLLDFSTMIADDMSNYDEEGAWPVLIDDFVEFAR

Compound	IC50 [1] [µM]	IC50 [2, 3] [nM]	IC50 [2, 4] [nM]	IC50 [2, 5] [nM]
CCN1C(=O)[C@@H](NC(=O)c2cccc(C(F)(F)F)c2)[C@@H](c2ccc(F)cn2)c2c(C(=O)N3CCC[C@H]3C#N)nn(-c3ccccc3)c21 (mixture of isomers) [Compound I-409]	0.1 to 1	≤ 200	1000 to 3000	
CCN1C(=O)[C@@H](NC(=O)c2cccc(C(F)(F)F)c2)[C@@H](c2ccccn2)c2c(C(=O)N3CCC[C@H]3C#N)nn(-c3ccccc3)c21 (mixture of isomers) [Compound I-413]	≤ 0.1	≤ 200	1000 to 3000	
CCN1C(=O)[C@H](NC(=O)c2cccc(C(F)(F)F)c2)[C@H](C2CC2)c2c(C(=O)N(C)C(C)C#N)nn(C3CCOCC3)c21 (mixture of isomers) [Compound I-415]	> 1	1000 to 3000	1000 to 3000	
CCN1C(=O)[C@@H](NC(=O)c2cccc(C(F)(F)F)c2)[C@@H](c2ccc(F)cc2)c2c(C(=O)N3C[C@H](NC)C[C@H]3C#N)nn(C3CCOCC3)c21 (mixture of isomers) [Compound I-509, N-((4S,5S)-3-((2S,4R)-2-cyano-4-(methylamino)pyrrolidine-1-carbonyl)-7-ethyl-4-(4-fluorophenyl)-6-oxo-1-(tetrahydro-2H-pyran-4-yl)-4,5,6,7-tetrahydro-1H-pyrazolo[3,4-b]pyridin-5-yl)-3-(trifluoromethyl)benzamide]	≤ 0.1	≤ 200		≤ 200
CCN1C(=O)[C@@H](NC(=O)c2cccc(C(F)(F)F)c2)[C@@H](C2CC2)c2c(C(=O)N3[C@H](C#N)C[C@H]4C[C@H]43)nn(C(C)(C)C)c21 (mixture of isomers) [Compound I-517]	0.1 to 1	200 to 1000	1000 to 3000	
CCN1C(=O)[C@@H](NC(=O)c2cccc(C(F)(F)F)c2)[C@@H](C2CC2)c2c(C(=O)N(C)C(C)C#N)nn(-c3ccccc3)c21 (mixture of isomers) [Compound I-543]	0.1 to 1	≤ 200		≤ 200
CCN1C(=O)[C@@H](NC(=O)c2cccc(C(F)(F)F)c2)[C@@H](c2ccc(F)cc2)c2c([C@@H](CCO)NC#N)nn(-c3ccccc3)c21 (mixture of isomers) [Compound I-567, N-(rac-(4S,5S)-3-((R)-1-cyanamido-3-hydroxypropyl)-7-ethyl-4-(4-fluorophenyl)-6-oxo-1-phenyl-4,5,6,7-tetrahydro-1H-pyrazolo[3,4-b]pyridin-5-yl)-3-(trifluoromethyl)benzamide]	> 1	1000 to 3000	1000 to 3000	
CCN1C(=O)[C@@H](NC(=O)c2cccc(C(F)(F)F)c2)[C@@H](c2ccc(F)nc2)c2c(C(=O)N3CCC[C@H]3C#N)nn(C3CC3)c21 (mixture of isomers) [Compound I-585]	0.1 to 1	≤ 200	1000 to 3000	
CCN1C(=O)[C@@H](NC(=O)c2cccc(C(F)(F)F)c2)[C@@H](c2ccc(F)cc2)c2c([C@@H](CN(C)C)NC(N)=O)nn(-c3ccccc3)c21 (mixture of isomers) [Compound I-673]	> 1	200 to 1000	200 to 1000	
CCN1C(=O)[C@@H](NC(=O)c2cccc(C(F)(F)F)c2)[C@@H](c2ccc(F)cc2)c2c(C(=O)N(C)[C@H](C#N)CCN(C)C)nn(-c3ccccc3)c21 (single isomer, unassigned) [Compound I-303, (4S,5S)—N-[(1S*)-1-cyano-3-(dimethylamino)propyl]-7-ethyl-4-(4-fluorophenyl)-N-methyl-6-oxo-1-phenyl-5-[3-(trifluoromethyl)benzamido]-4H,5H-pyrazolo[3,4-b]pyridine-3-carboxamide]	≤ 0.1			
CCN1C(=O)[C@@H](NC(=O)C2CCOc3ccccc32)[C@@H](C2CC2)c2c(C(=O)N3[C@H](C#N)C[C@H]4C[C@H]43)nn(C3CCOCC3)c21 (stereo partly drawn) [Compound I-598]		1000 to 3000	1000 to 3000	
CCN1C(=O)[C@@H](NC(=O)CC2CC(=O)c3ccc(OC)cc32)[C@@H](C2CC2)c2c(C(=O)N3[C@H](C#N)C[C@H]4C[C@H]43)nn(C3CCOCC3)c21 (stereo partly drawn) [Compound I-618]		1000 to 3000	1000 to 3000	
CCOc1ccc(C)c(C(=O)N[C@@H]2C(=O)N(CC)c3c(c(C(=O)N4[C@H](C#N)C[C@H]5C[C@H]54)nn3C3CCOCC3)[C@@H]2C2CC2)c1 [Compound I-620]		≤ 200		≤ 200
CCN1C(=O)[C@@H](NC(=O)c2cc(F)ccc2C(F)(F)F)[C@@H](C2CC2)c2c(C(=O)N3[C@H](C#N)C[C@H]4C[C@H]43)nn(C3CCOCC3)c21 [Compound I-623]		1000 to 3000	1000 to 3000	
CCN1C(=O)[C@@H](NC(=O)c2ccc(C)c(C(F)(F)F)c2)[C@@H](C2CC2)c2c(C(=O)N3[C@H](C#N)C[C@H]4C[C@H]43)nn(C3CCOCC3)c21 [Compound I-627]		≤ 200		≤ 200
CCN1C(=O)[C@@H](NC(=O)C2CCC(F)(F)CC2)[C@@H](C2CC2)c2c(C(=O)N3[C@H](C#N)C[C@H]4C[C@H]43)nn(C3CCOCC3)c21 [Compound I-652]		1000 to 3000	1000 to 3000	
CCN1C(=O)[C@@H](NC(=O)c2ccc(C3CCN(C)CC3)cc2)[C@@H](C2CC2)c2c(C(=O)N3[C@H](C#N)C[C@H]4C[C@H]43)nn(C3CCOCC3)c21 [Compound I-653]		1000 to 3000	1000 to 3000	
CCN1C(=O)[C@@H](NC(=O)C2CC(C)C2)[C@@H](C2CC2)c2c(C(=O)N3[C@H](C#N)C[C@H]4C[C@H]43)nn(C3CCOCC3)c21 (stereo partly drawn) [Compound I-655]		1000 to 3000	1000 to 3000	
CCN1C(=O)[C@@H](NC(=O)CC2CCCc3ccccc32)[C@@H](C2CC2)c2c(C(=O)N3[C@H](C#N)C[C@H]4C[C@H]43)nn(C3CCOCC3)c21 (stereo partly drawn) [Compound I-663]		1000 to 3000	1000 to 3000	
CCN1C(=O)[C@@H](NC(=O)c2ccn(C(C)(C)C)n2)[C@@H](C2CC2)c2c(C(=O)N3[C@H](C#N)C[C@H]4C[C@H]43)nn(C3CCOCC3)c21 [Compound I-688]		≤ 200	200 to 1000	
CCN1C(=O)[C@@H](NC(=O)c2cccc(F)c2)[C@@H](C2CC2)c2c(C(=O)N3[C@H](C#N)C[C@H]4C[C@H]43)nn(C3CCOCC3)c21 [Compound I-690]		≤ 200	200 to 1000	
CCN1C(=O)[C@@H](NC(=O)c2cc(C)n(C(C)(C)C)n2)[C@@H](C2CC2)c2c(C(=O)N3[C@H](C#N)C[C@H]4C[C@H]43)nn(C3CCOCC3)c21 [Compound I-691]		≤ 200	1000 to 3000	
CCN1C(=O)[C@@H](NC(=O)c2ccc3c(c2)OCCO3)[C@@H](C2CC2)c2c(C(=O)N3[C@H](C#N)C[C@H]4C[C@H]43)nn(C3CCOCC3)c21 [Compound I-695]		1000 to 3000	1000 to 3000	
CCC(=O)N[C@@H]1C(=O)N(CC)c2c(c(C(=O)N3[C@H](C#N)C[C@H]4C[C@H]43)nn2C2CCOCC2)[C@@H]1C1CC1 [Compound I-696]		1000 to 3000	1000 to 3000	
CCN1C(=O)[C@@H](NC(=O)c2cccc(C#N)c2)[C@@H](C2CC2)c2c(C(=O)N3[C@H](C#N)C[C@H]4C[C@H]43)nn(C3CCOCC3)c21 [Compound I-698]		200 to 1000	200 to 1000	
CCN1C(=O)[C@@H](NC(=O)C23CC(C(F)(F)F)(C2)C3)[C@@H](C2CC2)c2c(C(=O)N3[C@H](C#N)C[C@H]4C[C@H]43)nn(C3CCOCC3)c21 [Compound I-701]		1000 to 3000	1000 to 3000	
